# Reference: PMC10762035, “Molecular basis of human trace amine-associated receptor 1 activation” (Nature Communications, 2024)
# Substitutions are numbered along the chain they refer to. Values joined by “and” are separate entries in the source; they are usually repeats but may differ in a detail not shown here. Equal values may be shown once. Read-outs that look alike come from different tables or passages of the source.
# Assays:
# hTA1 C88/178S = molecular target: T1, hTA1 C88/178S (Homo sapiens, UniProt Q96RJ0, C178S/C88S); experiment: GloSensor cAMP accumulation assay, C88S/C178S double mutant; format: cell-based; details: for Normalized Luminescence Counts (N=2): log[Compound], single replicate values
# T1 construct: expressed in transfected cells; host or cells: HEK293T
# T1 sequence (Q96RJ0 1-339 C88S/C178S): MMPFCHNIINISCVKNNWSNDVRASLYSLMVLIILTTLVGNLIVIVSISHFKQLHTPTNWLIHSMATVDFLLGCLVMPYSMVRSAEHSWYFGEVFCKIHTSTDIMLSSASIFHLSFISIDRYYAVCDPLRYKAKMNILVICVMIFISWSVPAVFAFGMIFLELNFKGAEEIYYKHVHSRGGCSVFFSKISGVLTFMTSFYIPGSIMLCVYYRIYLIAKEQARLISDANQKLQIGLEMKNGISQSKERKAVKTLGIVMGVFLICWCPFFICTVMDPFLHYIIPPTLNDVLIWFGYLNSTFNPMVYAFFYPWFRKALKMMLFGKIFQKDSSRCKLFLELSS
# hTA1 = molecular target: T2, hTA1 (Homo sapiens, UniProt Q96RJ0); experiment: GloSensor cAMP accumulation assay, concentration response, wild-type hTA1 in transfected HEK293T cells; format: cell-based; details: for Emax: HEK-293T; for Dose-response curves for asenapine vs endogenous trace amines: log[Compound], replicate values (N=2);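 as to all read-outs here: luminescence read after 30 min compound exposure at room temperature in cells preloaded with D-Luciferin, reflecting Gs-driven cAMP rise, efficacy scaled to the maximal β-PEA response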
# T2 construct: expressed in transfected cells; host or cells: HEK293T
# T2 sequence (Q96RJ0 1-339): T1 sequence (Q96RJ0 1-339 C88S/C178S) with S88C, S178C
structure (smiles),measurement,setting,value
"NCCc1ccc(O)cc1 [TYR, tyramine]",Normalized Luminescence Counts (N=2),"hTA1 C88/178S; C88S, C178S, M = -8",0.3416 and 1.077 and 0.3981 and 2.124 and 2.577 and 4.239
same,Normalized Luminescence Counts (N=2),"hTA1 C88/178S; C88S, C178S, M = -8.522",0.2285 and 0.4547 and 1.1331 and 0.9158 and 0.6137 and 2.577
same,Normalized Luminescence Counts (N=2),"hTA1 C88/178S; C88S, C178S, M = -9",-0.6195 and -0.1107 and 0.3416 and -1.501 and -1.35 and 3.6345
same,Normalized Luminescence Counts (N=2),"hTA1 C88/178S; C88S, C178S, M = -9.522",-0.5065 and -0.563 and -0.05417 and -0.8967 (2×) and -1.652
same,Normalized Luminescence Counts (N=2),"hTA1 C88/178S; C88S, C178S, M = -10",-0.1107 and -0.9588 (2×) and -1.35 and -0.4436 and -0.1415
same,Normalized Luminescence Counts (N=2),"hTA1 C88/178S; C88S, C178S, M = -10.522",-0.6195 and -0.1672 and 0.0589 and -1.954 and -1.048 and 1.067
same,Normalized Luminescence Counts (N=2),"hTA1 C88/178S; C88S, C178S, M = -11",-0.05417 and 0.5677 and 0.3981 and -1.652 and -0.8967 and 0.7648
same,Normalized Luminescence Counts (N=2),"hTA1 C88/178S; C88S, C178S, M = -11.522",0.7373 and 0.9635 and 0.285 and -0.8967 (2×) and 0.1606
same,Normalized Luminescence Counts (N=2),"hTA1 C88/178S; C88S, C178S, M = -12",-0.563 and 1.02 and 0.7939 and -0.1415 and -1.048 and 0.7648
same,Normalized Luminescence Counts (N=2),"hTA1 C88/178S; C88S, C178S, M = -12.522",0.2285 and 0.8504 and 0.3981 and -0.8967 and -0.4436 and -1.199
same,"Emax values, Mean","hTA1 C88/178S; C88S, C178S, normalized (β-PEA = 100), each row is one independent experiment, 3 replicates",104.155 and 94.5547
same,Emax,hTA1 C88/178S; read-out: Span ± SEM (Emax normalized to β-PEA),99.3 ± 4.8%
same,Emax,hTA1,99%
same,Emax,"hTA1; WT hTA1, β-PEA = 100, average of the two experiments, read-out: Emax values, Avg",99%
same,Emax,"hTA1; WT hTA1, β-PEA = 100, each line an independent experiment, 3 replicates, read-out: Emax values (Mean)",98.7%
same,"Emax values, Mean","hTA1; WT hTA1, β-PEA = 100, each line an independent experiment, 3 replicates",99.2414
same,"Emax values, Avg","hTA1; WT, average of the experiments, β-PEA = 100",98.98
same,"Emax values, Avg","hTA1; WT, average of the two experiments",98.98
same,"Emax values, Mean","hTA1; WT, mean of each independent experiment (3 replicates), β-PEA = 100",98.7253 and 99.2414
same,"Emax values, Mean","hTA1; WT, single experiments (3 replicates each), β-PEA = 100",98.7253 and 99.2414
same,Dose-response curves for asenapine vs endogenous trace amines,hTA1; M = -5,87.8798 and 96.6135 and 100.84 and 85.1295 and 110.033 and 96.1011
same,Dose-response curves for asenapine vs endogenous trace amines,hTA1; M = -5.522,78.3008 and 89.6171 and 91.9649 and 78.2527 and 93.1412 and 82.5257
same,Dose-response curves for asenapine vs endogenous trace amines,hTA1; M = -6,74.2157 and 61.4437 and 71.9149 and 59.67 and 72.4888 and 65.1224
same,Dose-response curves for asenapine vs endogenous trace amines,hTA1; M = -6.522,42.6615 and 39.1398 and 48.3901 and 34.5221 and 51.4135 and 39.5962
same,Dose-response curves for asenapine vs endogenous trace amines,hTA1; M = -7,13.8777 and 16.742 and 21.1088 and 17.6752 and 31.7847 and 17.7865
same,Dose-response curves for asenapine vs endogenous trace amines,hTA1; M = -7.522,4.58 and 3.454 and 4.252 and 2.943 and 7.126 and 3.989
same,Dose-response curves for asenapine vs endogenous trace amines,hTA1; M = -8,2.796 and 3.5 and 3.313 and 3.588 and 4.545 and 4.122
same,Dose-response curves for asenapine vs endogenous trace amines,hTA1; M = -8.522,0.3075 and 0.6831 and 1.294 and -0.5515 and 0.6503 and 0.4723
same,Dose-response curves for asenapine vs endogenous trace amines,hTA1; M = -9,-0.6786 and 0.2605 and 0.02574 and -1.508 and -0.9298 and -0.774
same,Dose-response curves for asenapine vs endogenous trace amines,hTA1; M = -9.522,-0.5847 and -0.9603 and -0.3499 and -2.02 and -0.7963 and -1.241
same,Dose-response curves for asenapine vs endogenous trace amines,hTA1; M = -10,-0.1151 and -1.148 and -0.9134 and -1.041 and -0.1064 and -1.063
same,Dose-response curves for asenapine vs endogenous trace amines,hTA1; M = -10.522,-0.3029 and -1.148 and -1.43 and -1.798 and -1.019 and -1.397
same,Dose-response curves for asenapine vs endogenous trace amines,hTA1; M = -11,-0.209 (3×) and -0.6182 and 0.361 and -0.7518
same,Dose-response curves for asenapine vs endogenous trace amines,hTA1; M = -11.522,0.0727 and -0.06817 and 0.2605 and -0.7073 and 0.1607 and -0.4179
same,Dose-response curves for asenapine vs endogenous trace amines,hTA1; M = -12,0.0727 and 1.247 and 0.777 and -1.086 and -0.774 (2×)
same,Dose-response curves for asenapine vs endogenous trace amines,hTA1; M = -12.522,0.4483 and 0.1197 and 0.3544 and -2.02 and -1.575 and -1.33
same,EC50,"hTA1; pEC50 values (Mean), WT hTA1, each line an independent experiment, 3 replicates, Figure 2B source data",414 nM and 416 nM
same,EC50,"hTA1; pEC50 ± SEM, wt hTA1, HEK293T, n=3",417 nM
same,EC50,"hTA1; wt hTA1, HEK293T, n=3, read-out: EC50",415 nM
